The results in this text go back to patent US12110316B2, “Cleavable activators of CXCR3 and methods of use” (University of Pittsburgh—Of the Commonwealth System of …, priority 2018, dated 2024).

The assay concerns choroidal neovascularization (CNV). Briefly: Laser-induced choroidal neovascularization (CNV) mouse model. It counts as in vivo. The settings on record: female C57BL/6J mice; 1 μg (FIG. 1A) or 3 μg (FIG. 1B) peptide injected in 1 μl in one eye immediately after laser; scramble peptide in contralateral eye; measured seven days after laser. On the procedure: Since the histidine to serine substitution is a non-conserved amino acid change, experiments were performed to confirm that the engineered peptide retained the ability to block angiogenesis and fibrosis in a mouse model of choroidal neovascularization (CNV).
Mouse CNV was induced by laser photocoagulation-induced rupture of Bruch's membrane as previously described. Briefly, 7- to 8-week-old female C57BL/6J mice were anesthetized with ketamine hydrochloride (100 mg/kg body weight), and pupils were dilated with 1% tropicamide. Three burns of 532-nm diode laser photocoagulation (spot size, […]; duration, 0.1 sec; power, 120 mW) were delivered to each retina with the slit lamp delivery system of an OcuLight GL diode laser (Iridex, Mountain View, CA), using a coverslip as a contact lens to view the retina. Burns were performed at the 9, 12, and 3 o'clock positions of the posterior pole of the retina. […]
Immediately after laser treatment, mice were injected with either 1 μg (FIG. 1A) or 3 μg (FIG. 1B) of Peptide 110 (SEQ ID NO: 2), or one of three positive control peptides (Peptide 102, Peptide 105 or Peptide 107), in a volume of 1 μl in one eye and the contralateral eyes were injected with scramble peptide as control. […] After three washes with PBST, choroids were mounted on glass slides and were examined by fluorescence microscopy. […]

For the sequence “PESKAIKNLLKAVHKEMSKRSP [Peptide 110, modified fragment of human CXCL10 with a cathepsin G and neutrophil elastase cleavage site]”, the “choroidal neovascularization (total area of choroidal NV at each rupture site); anti-angiogenic activity” value was “significant reduction”.
